Our source for the inhibition in vivo and Activity values is ChEMBL document CHEMBL3045001, “Synthesis and evaluation of analgesic, anti-inflammatory, and anticancer activities of new pyrazole-3(5)-carboxylic acid derivatives” (Med Chem Res, 2013).

Holding throughout (format): functional
What all share (conditions): route subcutaneous

Experiment [1] concerns Mus musculus. In words: Anti-inflammatory activity in carrageenan-induced Mus musculus Swiss albino (mouse) paw edema model assessed as inhibition of paw edema at 10 mg/kg, sc administered 30 min prior to carrageenan injection measured after 360 min.
The subject of experiment [2] is Mus musculus. The experiment can be described thus: Anti-inflammatory activity in carrageenan-induced Mus musculus Swiss albino (mouse) paw edema model assessed as inhibition of paw edema at 10 mg/kg, sc administered 30 min prior to carrageenan injection measured after 270 min.
Experiment [3] relates to Mus musculus. The experiment can be described thus: Anti-inflammatory activity in carrageenan-induced Mus musculus Swiss albino (mouse) paw edema model assessed as inhibition of paw edema at 10 mg/kg, sc administered 30 min prior to carrageenan injection measured after 180 min.
The subject of experiment [4] is Mus musculus. In words: Anti-inflammatory activity in carrageenan-induced Mus musculus Swiss albino (mouse) paw edema model assessed as inhibition of paw edema at 10 mg/kg, sc administered 30 min prior to carrageenan injection measured after 90 min.
Experiment [5] deals with Mus musculus. In words: Anti-inflammatory activity in carrageenan-induced Mus musculus Swiss albino (mouse) paw edema model assessed as paw swelling at 10 mg/kg, sc administered 30 min prior to carrageenan injection measured after 360 min (reference value: 77.0 +/-3.0 x10'-2 mm).
The test system of experiment [6] is Mus musculus. In words: Anti-inflammatory activity in carrageenan-induced Mus musculus Swiss albino (mouse) paw edema model assessed as paw swelling at 10 mg/kg, sc administered 30 min prior to carrageenan injection measured after 270 min (reference value: 75.0 +/-3.0 x10'-2 mm).
For experiment [7], the system named is Mus musculus. The experiment can be described thus: Anti-inflammatory activity in carrageenan-induced Mus musculus Swiss albino (mouse) paw edema model assessed as paw swelling at 10 mg/kg, sc administered 30 min prior to carrageenan injection measured after 180 min (reference value: 51.0 +/-3.0 x10'-2 mm).
In experiment [8] the test system is Mus musculus. In words: Anti-inflammatory activity in carrageenan-induced Mus musculus Swiss albino (mouse) paw edema model assessed as paw swelling at 10 mg/kg, sc administered 30 min prior to carrageenan injection measured after 90 min (reference value: 38.0 +/-2.0 x10'-2 mm).

Regarding `COc1ccc2c(c1)c(CC(=O)O)c(C)n2C(=O)c1ccc(Cl)cc1` [INDOMETHACIN], the inhibition in vivo at 10 mg/kg was 45.7% in the experiment with Mus musculus [1], 45.6% with Mus musculus [2], 31.7% in the experiment with Mus musculus [3] and 15.5% in the experiment on Mus musculus [4]. The Activity in the experiment on Mus musculus [5] is given as 42 ×10⁻² mm; in the experiment with Mus musculus [6] it was 41 ×10⁻² mm; in the experiment with Mus musculus [7], 35 ×10⁻² mm; in the experiment with Mus musculus [8], 32 ×10⁻² mm.
